“Also recorded” adds a separate entry of the source.
Key:
[1] = Serum stability analysis in human serum; format: in vitro ADME; settings: human serum (1:10), 37 °C
Method: [Lys^37(DTPA)]N-acetyl-GIP1-42 (MW = 5422 g/mol) and GIP1-42 (MW = 5046.7 g/mol) were purchased from Peptide Specialty Laboratories (PSL GmbH, Heidelberg, Germany). DTPA was conjugated to the ε-amino group of the Lysine (K37) and the N-terminal tyrosine was acetylated to reduce its susceptibility to […] (Fig. 1). [Lys^37(DTPA)]GIP1-42 was dissolved in 0.5 M MES (2-(N-morpholino)ethanesulfonic acid) buffer, pH 5.5 and stored at 4 °C until use. […] Radiochemical purity of [Lys^37(^111In-DTPA)]N-acetyl-GIP1-42 was determined by instant thin-layer chromatography (ITLC) (ITLC-SG, Agilent Technologies, Lake Forest, CA, USA), using 0.1 M EDTA in 0.1 M NH4Ac (Sigma Aldrich), pH 5.5 as a mobile agent and by reversed-phase high performance liquid chromatography (RP-HPLC) using an Eclipse XDB C18 column (Agilent Technologies). […]
For the serum stability analysis, [Lys^37(DTPA)]N-acetyl-GIP1-42 was labeled with [^111In]Cl3 at a specific activity of 27 GBq/µmol. Radiochemical purity of [Lys^37(^111In-DTPA)]N-acetyl-GIP1-42 directly after labeling was determined by ITLC-SG (Agilent Technologies) and RP-HPLC as described above. […] This mixture was centrifuged and after dilution, the radiochemical purity of the compound in the supernatant was analyzed using ITLC and RP-HPLC as described above.

[2] = biological target: T1, GIPR on the islets of Langerhans (Mus musculus, UniProt Q0P543); experiment: In vitro binding to isolated islets; settings: islets of C3H mice, 24 hours, 37 °C, + 25 µg unlabeled GIP1-42, mean ± SD
T1 construct: Islets of Langerhans were isolated from donor C3H mice by collagenase digestion; from tissue; host or cells: isolated islets of Langerhans from C3H mice
T1 sequence (Q0P543 19-460): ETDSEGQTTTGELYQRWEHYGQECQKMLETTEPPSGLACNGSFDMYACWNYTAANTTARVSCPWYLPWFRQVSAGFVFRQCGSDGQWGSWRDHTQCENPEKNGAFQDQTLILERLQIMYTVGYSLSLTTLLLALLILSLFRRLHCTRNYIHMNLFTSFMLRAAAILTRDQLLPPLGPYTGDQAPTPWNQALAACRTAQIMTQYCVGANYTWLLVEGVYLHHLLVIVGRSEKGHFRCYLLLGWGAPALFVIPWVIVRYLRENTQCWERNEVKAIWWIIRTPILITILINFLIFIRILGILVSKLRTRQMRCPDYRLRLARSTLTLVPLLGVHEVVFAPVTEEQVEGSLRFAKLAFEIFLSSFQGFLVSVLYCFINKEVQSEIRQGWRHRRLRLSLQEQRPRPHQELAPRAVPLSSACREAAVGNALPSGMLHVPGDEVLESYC
Method: Islets of Langerhans were isolated from donor C3H mice by collagenase digestion as follows. Mice were euthanized by CO2/O2 suffocation and 2 ml of ice cold RPMI 1640 containing 1 mg/ml collagenase type V (Sigma Aldrich) were infused via the pancreatic duct in situ. After dissection, the perfused pancreata were collected in serum free medium containing collagenase and kept on ice until digestion. Pancreata were digested for 12 min at 37 °C. Digestion was stopped by adding RPMI medium containing 10% FCS, 2 mM L-glutamine, 100 U/ml penicillin and 100 U/ml streptomycin (complete RPMI). After washing, digested pancreata were passed through a mesh. Afterwards, islets were purified on a discontinuous Ficoll gradient (densities: 1.108; 1.096; 1.037; Cellgro by Mediatech Inc, Manassas, VA, USA) by centrifugation at 625 × g for 16 min without brake. Islets were collected from the intersection of the second and third layer and remaining Ficoll was removed by washing with complete RPMI. Isolated islets were cultured overnight in complete RPMI medium in a humidified atmosphere containing 5% CO2 at 37 °C.
After overnight recovery from the isolation procedure, islets from the donor C3H mice were collected, counted and resuspended in complete RPMI. […] After incubation, islets were washed extensively with binding buffer and islet-associated radioactivity was measured in a well type gamma counter.

CC[C@H](C)[C@H](NC(=O)[C@H](CO)NC(=O)[C@H](Cc1ccc(O)cc1)NC(=O)[C@H](CC(=O)O)NC(=O)[C@H](CO)NC(=O)[C@@H](NC(=O)[C@H](Cc1ccccc1)NC(=O)[C@@H](NC(=O)CNC(=O)[C@H](CCC(=O)O)NC(=O)[C@H](C)NC(=O)[C@H](Cc1ccc(O)cc1)NC(C)=O)[C@@H](C)O)[C@@H](C)CC)C(=O)N[C@@H](C)C(=O)N[C@@H](CCSC)C(=O)N[C@@H](CC(=O)O)C(=O)N[C@@H](CCCCN)C(=O)N[C@H](C(=O)N[C@@H](Cc1c[nH]cn1)C(=O)N[C@@H](CCC(N)=O)C(=O)N[C@@H](CCC(N)=O)C(=O)N[C@@H](CC(=O)O)C(=O)N[C@@H](Cc1ccccc1)C(=O)N[C@H](C(=O)N[C@@H](CC(N)=O)C(=O)N[C@@H](Cc1c[nH]c2ccccc12)C(=O)N[C@@H](CC(C)C)C(=O)N[C@@H](CC(C)C)C(=O)N[C@@H](C)C(=O)N[C@@H](CCC(N)=O)C(=O)N[C@@H](CCCCN)C(=O)NCC(=O)N[C@@H](CCCCN)C(=O)N[C@@H](CCCCN)C(=O)N[C@@H](CC(N)=O)C(=O)N[C@@H](CC(=O)O)C(=O)N[C@@H](Cc1c[nH]c2ccccc12)C(=O)N[C@@H](CCCCNC(=O)CN(CCN(CCN(CC(=O)O)CC(=O)O)CC(=O)O)CC(=O)O)C(=O)N[C@@H](Cc1c[nH]cn1)C(=O)N[C@@H](CC(N)=O)C(=O)N[C@H](C(=O)N[C@H](C(=O)N[C@@H](CCC(N)=O)C(=O)O)[C@@H](C)O)[C@@H](C)CC)C(C)C)[C@@H](C)CC [[Lys^37(^111In-DTPA)]N-acetyl-GIP1-42, metal not drawn]
remaining at 24 h ([1]; 24 hours, acetonitrile precipitation, RP-HPLC, read-out: activity found as intact radiolabeled peptide): 73%
stability in human serum ([1]; up to 4 hours, ITLC and RP-HPLC): remained intact; also recorded: remained stable
tracer bound to 200 isolated islets with excess unlabeled GIP1-42 [2]: 0.03 ± 0.01 fmol
